Assay results: patent US20150329821A1, “METHODS OF DIFFERENTIATING STEM CELLS INTO ONE OR MORE CELL LINEAGES” (AGENCY FOR SCIENCE, TECHNOLOGY AND RESEARCH, priority 2012, published 2015)

Test system: hESC
Test: qPCR of DE vs. mesoderm emergence from primitive streak under signaling perturbations
Assay type: cell-based, human
Details: for downregulation of MESP1: neutralizing endogenous BMP on days 2-3, PS to DE, 2 hESC lines; for mesoderm formation from PS: inhibiting endogenous Wnt on days 2-3
Experimental: RNA was harvested from adherent cells grown in individual wells of a 12-well plate by the addition of 350 μL of RLT Buffer for several minutes. RNA could be indefinitely frozen at −80° C. or could be directly extracted. RNA extraction was conducted with the RNeasy Micro Kit (Qiagen) generally as per the manufacturer's recommendations with an intermediate 1 hour on-column DNase digestion to eliminate residual genomic DNA, and RNA was finally eluted from the column in 30 μL H20. After assessment of total RNA concentration, generally 100-500 ng of total RNA was used for reverse transcription (Superscript Reverse Transcriptase, Invitrogen) as per the manufacturer's instructions. Finally, cDNA was diluted 1:30 in H2O and was used for qPCR in 384-well high-throughput format. For each individual qPCR reaction per′ well (10 μL), 5 μL of 2×SYBR Green Master Mix (Applied Biosystems) was used and combined with 0.4 μL of combined forward and reverse primer mix (at 10 μM of forward+reverse primers in the combined primer mix). qPCR was conducted for 40 cycles at Tm=60° C., and a dissociation curve was generated at the end of the reaction to ensure only one product was specifically amplified per primer pair. qPCR analysis was conducted by the ddCt method: for each cDNA sample, the expression of experimental genes was internally normalized to the expression of a human housekeeping gene (Pbgd) for that same cDNA sample, and afterwards, expression of experimental genes could be determined between different cDNA samples. For all differentiated populations, expression of experimental genes was compared to undifferentiated hESCs plated for the same experimental set to ensure that any perceived increase or decrease of gene expression was significant relative to the ab initio expression of that gene in undifferentiated hESCs. Thus, for all qPCR data both in matrices […] and histograms (FIG. 39-65) all gene expression is normalized such that the level of gene expression (e.g., for SOX17) in hESCs=1. For each experiment, at least two distinct wells per, condition were harvested, and for each well, 2 or 3 technical replicates were performed for each gene whose expression was analyzed by qPCR.
To deduce the developmental signaling logic underlying cell-fate bifurcations, signaling-perturbation matrices (FIG. 1-23) were generated to visually represent qPCR data of developmental gene expression (rows) in response to various signaling-perturbations (columns). Signaling-perturbation matrices were generated using GenePattern's HeatMapViewer module (http://genepattern.broadinstitute.org), using as input data matrices of signaling-perturbation qPCR responses that were normalized to levels of developmental gene expression in undifferentiated hESC as described above. In HeatMapViewer, gene expression values are linearly transformed into colors (as indicated by the color legend below each matrix) in which no color represents low gene expression, stronger color represents higher gene expression and the strongest shade of color is equivalent to the highest level of the gene that was expressed in all signaling-perturbations tested in that matrix.

Molecule	downregulation of MESP1	mesoderm formation from PS
Cl.c1ccc2c(-c3cnn4cc(-c5ccc(N6CCNCC6)cc5)cnc34)ccnc2c1 [DM3189/LDN-193189, 4-(6-(4-(piperazin-1-yl)phenyl)pyrazolo[1,5-a]pyrimidin-3-yl)quinoline hydrochloride]	~3000 fold	–
O=c1[nH]c(-c2ccc(C(F)(F)F)cc2)nc2c1CSCC2 [XAV939, 3,5,7,8-Tetrahydro-2-[4-(trifluoromethyl)phenyl]-4H-thiopyrano[4,3-d]pyrimidin-4-one]	–	blocked mesoderm formation
Cc1ccc2nc(NC(=O)CSc3nc4c(c(=O)n3-c3ccccc3)SCC4)sc2c1 [IWP2, N-(6-Methyl-2-benzothiazolyl)-2-[(3,4,6,7-tetrahydro-4-oxo-3-phenylthieno[3,2-d]pyrimidin-2-yl)thio]-acetamide]	–	blocked mesoderm formation
noggin: inhibitor of BMP signaling (protein, UniProt Q13253 28-232, looked up) Noggin: QHYLHIRPAPSDNLPLVDLIEHPDPIFDPKEKDLNETLLRSLLGGHYDPGFMATSPPEDRPGGGGGAAGGAEDLAELDQLLRQRPSGAMPSEIKGLEFSEGLAQGKKQRLSKKLRRKLQMWLWSQTFCPVLYAWNDLGSRFWPRYVKVGSCFSKRSCSVPEGMVCKPSKSVHLTVLRWRCQRRGGQRCGWIPIQYPIISECKCSC	~3000 fold	–
Dkk1: inhibitor of Wnt signaling (protein, UniProt O94907 32-266, looked up) Dickkopf-related protein 1: TLNSVLNSNAIKNLPPPLGGAAGHPGSAVSAAPGILYPGGNKYQTIDNYQPYPCAEDEECGTDEYCASPTRGGDAGVQICLACRKRRKRCMRHAMCCPGNYCKNGICVSSDQNHFRGEIEETITESFGNDHSTLDGYSRRTTLSSKMYHTKGQEGSVCLRSSDCASGLCCARHFWSKICKPVLKEGQVCTKHRRKGSHGLEIFQRCYCGEGLSCRIQKDHHQASNSSRLHTCQRH	–	blocked mesoderm formation
